The text below walks through data of patent US20110135754A1, “CONTROL OF DISEASES IN CROPS” (priority 2008, published 2011).

Structures are written as SMILES.

One data set deals with rust. The data set is described as follows: Field spray of vanadyl citrate solution on an oats crop to control rust. In kind it is in vivo. The settings on record: oats crop for stock feed, about 2 hectares, sprayed at approx. 150 mm height, approx. 7.5 grams of elemental vanadium per hectare; adjacent untreated crop failed to give any yield due to rust. How it is done: A solution containing vanadium in the form of vanadyl citrate was prepared. The solution was sprayed onto about 2 hectares of an oats crop for stock feed, that was in early stages of growth where the crop was approximately 150 mm in height. The spray was applied in a manner such that approximately 7.5 grams of elemental vanadium per hectare, was applied to the crop.

For data set [1] the following is noted: at 20 c; in water; cited from earlier work.

`O=C([O-])CC(O)(CC(=O)[O-])C(=O)[O-].[O]=[V+2]` [vanadyl citrate]: the “crop yield (cuttings delivered) of treated crop” value in the data set with rust is on record as “delivered three cuttings”.

As for `[O]=[V](=[O])[O][V](=[O])=[O]` [Vanadium Pentoxide, vanadium pentoxide], in data set [1], the solubility is 0.8 g/100 ml.
